Test results reported in patent publication US5157052A, “Method for inhibiting IgE production” (priority 1990, dated 1992).

Experiments:
[1] = test system: IgE; assay: ED50 for inhibition of IgE calculated from the examples; assay type: in vivo, mouse; conditions: dose to achieve 50% inhibition of IgE
Protocol: From the data in the above examples, the effective dose of each prostaglandin to achieve 50% inhibition of IgE (ED50) was calculated.

[2] = test system: IgE; assay: Serum IgE response induced by FF1-4D5 + H∂A1 anti-IgD antibodies (ELISA, Assay A / Assay F); assay type: in vivo, mouse (Balb/c female)
Protocol: Mouse hybridoma cells expressing either FF1-4D5 antibody or H∂A1 antibody are thawed, established in culture, and incubated in mice as ascite tumors. FF1-4D5 antibody is a mouse IgG2a monoclonal antibody of the b allotype that binds the Fd fragment of the ∂ chain of the a allotype IgD which activates β cells through antigen internalization and processing, promoting cognate interactions with antigen-specific T cells (D. K. Goroff et al., J. Immunol. 136: 2382 (1986)). H∂A1 antibody is a mouse IgG2b of the b allotype that binds the Fc fragment of the ∂ chain of the a allotype IgD which activates β cells through crosslinking IgD (I. M. Zitron and B. L. Clevinger, J. Exp. Med. 152: 1135 (1980)). Each antibody is purified from their respective ascites tumor fluid. […] Serum from the injected mice is recovered and the mean concentration of IgE determined.
Serum levels of IgE are determined and IgE levels are shown to be inhibited in a dose dependent manner.
ELISA (enzyme linked immunosorbant assay) measurements of IgE are as follows. About 5 μg of B1E3 antibody in 100 μl borate buffered saline (pH8.5) is added to wells of a NuncImmulon II 96 well plate (DiRuscio & Assoc., St. Louis, Mo.) at 37° C. for 90 minutes. The non-bound antibody is removed by flicking the plate. Unreacted sites on the plastic plate are blocked by adding about 200 μl of a 2% solution of newborn bovine serum (NBS) in PBS at 37° C. for 60 minutes. The standard IgE (or an unknown murine serum sample) is diluted to between about 4 ng/ml-256 ng/ml in Hanks-HS (20 mM Hepes, 2% NBS in Hanks Balanced Salt Solution, Gibco, Grand Island, N.Y.) or to 1/200 to 1/1000 in Hanks-HS respectively. 100 μl of standard (or unknown dilutions) are added in triplicate to the wells of the plate and allowed to absorb to B1E3 antibody at about 37° C. for 2-4 hours. The solution is removed by flicking the plate and each well is washed with about 0.5 ml 0.05% Tween 20-PBS 5 times. About 100 μl of biotinylated R1E4, called the primary antibody, diluted to 200 ng/ml is added to all wells and incubated at about 4° C. overnight. The solution is removed by flicking the plate and washed 5 times as described above. The developing reagent (Avidin and biotin-horse radish peroxidase) is incubated in 2% NBS in PBS at ambient temperature for 30 minutes, according to manufacturer's specifications (Vector Laboratories, Burlingame, Calif.). About 100 μl of developing reagent is added to each well and incubated at ambient temperature for 30 minutes. Colorimetric substrate for the developing reagent (ABTS peroxidase substrate system, KPL, Gaithersburg, Md.) is prepared by mixing equal volumes of solutions A and B and incubating at ambient temperature for 60 minutes. The developing reagent solution is removed by flicking the plate and washed 5 times as described above. About 100 μl of the mixture of substrates is added to each well and incubated at ambient temperature for 60 minutes. The optical density of each well is determined on a BioTek ELISA reader (Biotek Instruments, Inc., Burlington, Vermont) and the absorbance data transferred electronically to a DEC VAX mainframe computer. A standard curve is fitted to the IgE standard optical densities using straight line, linear regression statistical fits. IgE in the unknown serum samples is determined by comparing the optical density of the unknown to the standard curve and multiplying that number by the dilution of serum used in the assay.
Stimulation of a transient serum IgE response in mouse with two monoclonal antibodies directed against IgD is carried out as follows.
Mouse hybridoma cells expressing either FF1-4D5 antibody or H∂Al antibody are thawed, established in culture, and incubated in CB6 F1 female mice as an ascites tumor and each immunoglobulin is purified from the ascites fluid as described above. […]

[3] = Diarrheal effects in rats; conditions: rat, in vivo, po
Protocol: Briefly, adult Charles River male rats weighing 210-230 g were individually housed and fasted with water available ad libitum for 24 hours prior to the test. The animals (N=6-12) received logarithmically graded prostaglandin doses orally. Immediately after administration, the animals were returned to their cages, and diarrhea, if any, was assessed on an all or none basis for 8 hours after drug treatment. The ED50 and relative potency values were calculated by the logistic method of Berkson.

[4] = test system: IgG2a; assay: Serum IgG2a in anti-IgD stimulated mice (two site sandwich ELISA, Assay C); assay type: in vivo, mouse (Balb/c female); conditions: 40 μg days 3 and 4; for IgG2a ± SD: Table 11
Protocol: Sera from mice treated with compounds in accordance with the method of the invention are analyzed for levels of IgG1, IgG2a, IgG3, and IgM.
Measurement of mouse IgG2a by a two site sandwich ELISA is performed in substantial accordance with the teaching of Assay B except with the following changes. NuncImmulon II plates are used in this assay. The IgG2a standard is purchased from Southern Biotech. The standard curve is linear between 4-250 ng/ml. Serum containing IgG2a is diluted 1/6400 to 1/1,000,000. About a 1/6,000 dilution of goat anti mouse IgG2a (Southern Biotech) conjugated to alkaline phosphatase is used.
Sera from the mice described in Example 13 are analyzed for the levels of IgG1, IgG2a, and IgG3 by Assays B, C, and D, respectively.
Two groups of 4 Balb/c female mice per group are injected with both 100 μg FF1-4D5 antibody and 100 μg H∂A1 antibody. One of these groups is a stimulated control designated Group B. On day 3 and 4, the other group is injected with 40 μg (±) methyl 11α, 16-dihydroxy-1-methyl-9-oxoprosta-4Z,13E-dien-1-oate. Another group is injected with only PBS as an unstimulated control (Group A). On day -1 and 8, 50-100 μl of serum is recovered and analyzed for IgE, IgG1 and IgG2a by Assays A, B, and C, respectively.
3 groups of 4 Balb/c female mice per group are injected with both 100 μg FF1-4D5 antibody and 100 μg H∂A1 antibody on day 0. Group A is given no further treatment. On day 3 and 4, one group of mice is injected with 20 μg (±) methyl 2-[2-[3R-3α-hydroxy-2β-(4-hydroxy-4-methyl-1E-octenyl-5-oxo-1α-cyclopentyl]-methyl]cyclopropanebutanoate (Group B) and another group with 20 μg (±) methyl 2-[2-[3R-3α-hydroxy-2β-(4-hydroxy-4-methyl-1E-octenyl)-5-oxo-1α-cyclopentyl]ethyl]cyclopropanepropanoate (Group C) as in Example 13. On day -1 and 8, 50-100 μl of serum is recovered and analyzed for IgE, IgG1, IgG2a and IgG3 by Assays A, B, C and D, respectively. The selectivity of inhibition of IgE is shown in Table 12.
Three groups of 5 Balb/c female mice per group are injected with both 100 μg FF1-4D5 antibody and 100 μg H∂A1 antibody on day 0. Group A is a control with no further treatment. On day 3 and 4, the mice are injected with 20 μg (±) methyl 11α,16-dihydroxy-4,4,16-trimethyl-9-oxoprosta-13E-en-1-oate (Group B) or 20 μg (±) methyl 11α,16-dihydroxy-16-methyl-9-oxoprosta-3,5Z,13E-trien-1-oate (Group C) as in Example 13. On day -1 and 8, […] of serum is recovered and analyzed for IgE, IgG1, IgG2a, IgG3 and IgM by Assays A, B, C, D and E, respectively.

[5] = test system: IgG1; assay: Serum IgG1 in anti-IgD stimulated mice (two site sandwich ELISA, Assay B); assay type: in vivo, mouse (Balb/c female); conditions: 40 μg days 3 and 4; for IgG1 ± SD: Table 11
[6] = Table 15, 20 μg days 3 and 4, day 8 (control 5090)
[7] = Table 15, 20 μg days 3 and 4, day -1 baseline before treatment
[8] = Table 16, 10 μg days 3 and 4, day 8 (control 8548)
[9] = Table 16, 10 μg days 3 and 4, day -1 baseline before treatment
[10] = day -1 baseline before treatment

| Structure (SMILES) | ED50 IgE Inhibition [1] | de novo IgE synthesis ([2]; 20 μg days 3 and 4, Example 26) | IgE ± SD [2, 6] | IgE ± SD [2, 7] | TD50 at 8 h [3] | de novo IgE synthesis ([2]; 10 μg days 3 and 4, Example 27) | IgE ± SD [2, 8] | IgE ± SD [2, 9] | other results |
| --- | --- | --- | --- | --- | --- | --- | --- | --- | --- |
| CCCCC(C)(O)C/C=C/[C@H]1[C@H](O)CC(=O)[C@@H]1CCCCCCC(=O)Oc1ccc(NC(C)=O)cc1 (mixture of isomers) [(±) 4-(acetylamino)phenyl-11α,16-dihydroxy-16-methyl-9-oxoprost-13E-en-1-oate] | 1.0 μg/mouse/TID | inhibit de novo IgE synthesis | 1880 ± 319 ng/mL | < 800 ng/mL |  |  |  |  |  |
| CCCCC(C)(O)C/C=C/[C@H]1[C@H](O)CC(=O)[C@@H]1CCCCCCC(=O)O (mixture of isomers) [(±) 11α,16-dihydroxy-16-methyl-9-oxo-prost-13E-en-1-oic acid] |  | inhibit de novo IgE synthesis | 1499 ± 132 ng/mL | 1029 ± 362 ng/mL |  |  |  |  |  |
| CCCCC(C)(O)C/C=C/[C@H]1[C@H](O)CC(=O)[C@@H]1CCCCCCC(=O)OC (mixture of isomers) [(±) methyl 11α,16-dihydroxy-16-methyl-9-oxoprost-13E-en-1-oate] | 1.5 μg/mouse/TID |  |  |  | 0.36 mg/kg | inhibit de novo IgE synthesis | 2123 ± 257 ng/mL | < 1600 ng/mL |  |
| CCCCC(C)(O)C/C=C/[C@H]1[C@H](O)CC(=O)[C@@H]1CC/C=C\CCC(=O)OC (mixture of isomers) [(±) methyl 11α,16-dihydroxy-16-methyl-9-oxoprosta-4Z,13E-dien-1-oate] | 4.0 μg/mouse/TID |  |  |  | 0.049 mg/kg |  |  |  | de novo IgE synthesis ([2]; 40 μg days 3 and 4): inhibits de novo IgE synthesis; IgE ± SD ([2]; Table 11, 40 μg days 3 and 4, day 8 (control 15890)): 3973 ± 905 ng/mL; IgE ± SD ([2]; Table 11, 40 μg days 3 and 4, day -1 baseline before treatment): 1717 ± 313 ng/mL; effect on IgG2a [4]: does not effect IgG1 or IgG2a; IgG2a ± SD ([4]; day 9 (control 1056)): 1058 ± 202 µg/mL; IgG2a ± SD [4, 10]: 160 ± 130 µg/mL; effect on IgG1 [5]: does not effect IgG1 or IgG2a; IgG1 ± SD ([5]; day 9 (control 19800)): 37728 ± 6913 µg/mL; IgG1 ± SD [5, 10]: 2331 ± 2212 µg/mL |
| CCCCC(C)(O)CCC[C@H]1[C@H](O)CC(=O)[C@@H]1CCCCCCC(=O)OC (mixture of isomers) [(±) methyl-11α,16-dihydroxy-16-methyl-9-oxoprostan-1-oate] | 4.8 μg/mouse/TID |  |  |  |  | inhibit de novo IgE synthesis | 3844 ± 238 ng/mL | < 1600 ng/mL |  |
| CCCCC(C)(O)C/C=C/[C@H]1[C@H](O)CC(=O)[C@@H]1CCCCCCC(=O)OC(C)C (relative stereo) [(±) methylethyl-11α,16-dihydroxy-16-methyl-9-oxoprost-13E-en-1-oate] | 1.5 μg/mouse/TID |  |  |  |  |  | 2127 ± 149 ng/mL | < 1600 ng/mL |  |
